Assays:
tumor cells = assay: Mitophagy by transmission electron microscopy; format: cell-based; conditions: concentration 0.3 μM, work time 3 hours; FIG. 3
Protocol: • (1) Apparatus: Transmission electron microscope Hitachi HT-7800 • (2) Reagent: glutaraldehyde • (3) Experimental method: cells are inoculated in a 6 cm diameter Petri dish and incubated with the compounds for 3 hours. The culture solution is poured out; a 2 mL glutaraldehyde working solution (2.5% glutaraldehyde and phosphate buffer (PB) system) restored to room temperature is added and put into a refrigerator at 4° C. after fixation for 15 minutes at room temperature; the fixation solution is diluted 2-3 times with PB after fixation for 2-3 hours, the PB used for washing is poured off, PB containing 5% Bovine albumin (BSA) is added with an amount of 1 mL, and the adherent fixed cells are scraped off using a cell scraper, collected into 1.5 mL centrifuge tubes, and centrifuged for 4-5 minutes at 2,500 revolutions per minute (rpm) at 4° C. to prepare samples. The images are analyzed by a transmission electron microscope.

[1] = Immunohistochemistry of heart, liver, spleen, lung and kidney in tumor-bearing mice; format: in vivo, BALB/c (nu/nu) nude mice; conditions: 1 mg/kg intraperitoneal injection once a day for 15 days; FIG. 6
Protocol: BALB/c (nu/nu) nude mice (with weights of 18-20 g and raised in an SPF-level animal room) are selected to construct a mouse transplantation tumor model in vitro, the mice are grouped and inoculated with human non-small cell lung cancer cells (A549), and tumor volumes in the mice grow to 100-300 mm^3. The drug is administered by intraperitoneal injection, and each mouse in an administration group is administered once a day and 1 mg/kg once according to body weight. In a control group, each mouse is administrated with a same volume of PBS buffer, the volume of each mouse is measured simultaneously, and the drug is continuously administered for 15 days. After the drug administration and treatment process is complete, the mice are killed by cervical dislocation, and the mouse tumors are stripped, photographed, and weighed.

Structure (SMILES)	autophagosome formation / mitophagy (tumor cells)	toxic side effects (heart, liver, spleen, lung, kidney) [1]
CN(C(=O)CC[P+](c1ccccc1)(c1ccccc1)c1ccccc1)[C@H]1CC[C@@H](c2ccc(Cl)c(Cl)c2)c2ccccc21 [Mito-2-Ser, (3-(((1S,4S)-4-(3,4-dichlorophenyl)-1,2,3,4-tetrahydronaphthalen-1-yl)(methyl)amino)-3-propanoyl)triphenylphosphine]	induce autophagosome formation to phagocytize mitochondria	–
CN(C(=O)CCCCCCCCCC[P+](c1ccccc1)(c1ccccc1)c1ccccc1)[C@H]1CC[C@@H](c2ccc(Cl)c(Cl)c2)c2ccccc21 [Mito-10-Ser, (11-(((1S,4S)-4-(3,4-dichlorophenyl)-1,2,3,4-tetrahydronaphthalen-1-yl)(methyl)amino)-11-oxoundecyl)triphenylphosphine]	–	did not have significant toxic side effects
CN(C(=O)CCCCCCCCCCCC[P+](c1ccccc1)(c1ccccc1)c1ccccc1)[C@H]1CC[C@@H](c2ccc(Cl)c(Cl)c2)c2ccccc21 [Mito-12-Ser, (13-(((1S,4S)-4-(3,4-dichlorophenyl)-1,2,3,4-tetrahydronaphthalen-1-yl)(methyl)amino)-13-oxytridecyl)triphenylphosphine]	induce autophagosome formation to phagocytize mitochondria	–

Source: patent US20240116961A1, “TRIPHENYPHOSPHINE MODIFIED SERTRALINE DERIVATIVE AND METHODS THEREOF” (XIAMEN UNIVERSITY, priority 2022, published 2024)
